We go through 8 compounds from PMC9370021, “Novel 1,3-Thiazole Analogues with Potent Activity against Breast Cancer: A Design, Synthesis, In Vitro, and In Silico Study” (Molecules, 2022).

The test system of data set [1] is MDA-MB-231 breast cancer cell line. Put plainly: MTT anti-proliferative assay, MDA-MB-231. Format: cell-based. The settings on record: mean ± S.E.M. The method, then:
(§1) Toward this aim, the cells were treated with the synthesized compounds at different concentrations and were incubated for 48 h. In our evaluations, staurosporine (STU) was used as a reference drug. After the cells were washed, they were treated with MTT solution, and an ELISA reader assessed the absorption of the solution at a wavelength of 570 nm.
(§2) Finally, the resulting MTT crystals were dissolved at ambient temperature in acidified isopropanol (180 µL/well) with shaking, and the absorption was assessed at 570 nm utilizing ELISA.

For a further data set, the target named is human VEGFR-2/KDR (Homo sapiens, UniProt P35968). Put plainly: VEGFR-2 inhibitory activity (VEGFR-2/KDR ELISA kit). A general note: An ELISA detects its analyte on a solid surface through an enzyme-linked reagent.
Sequence of human VEGFR-2/KDR (P35968 20-1356): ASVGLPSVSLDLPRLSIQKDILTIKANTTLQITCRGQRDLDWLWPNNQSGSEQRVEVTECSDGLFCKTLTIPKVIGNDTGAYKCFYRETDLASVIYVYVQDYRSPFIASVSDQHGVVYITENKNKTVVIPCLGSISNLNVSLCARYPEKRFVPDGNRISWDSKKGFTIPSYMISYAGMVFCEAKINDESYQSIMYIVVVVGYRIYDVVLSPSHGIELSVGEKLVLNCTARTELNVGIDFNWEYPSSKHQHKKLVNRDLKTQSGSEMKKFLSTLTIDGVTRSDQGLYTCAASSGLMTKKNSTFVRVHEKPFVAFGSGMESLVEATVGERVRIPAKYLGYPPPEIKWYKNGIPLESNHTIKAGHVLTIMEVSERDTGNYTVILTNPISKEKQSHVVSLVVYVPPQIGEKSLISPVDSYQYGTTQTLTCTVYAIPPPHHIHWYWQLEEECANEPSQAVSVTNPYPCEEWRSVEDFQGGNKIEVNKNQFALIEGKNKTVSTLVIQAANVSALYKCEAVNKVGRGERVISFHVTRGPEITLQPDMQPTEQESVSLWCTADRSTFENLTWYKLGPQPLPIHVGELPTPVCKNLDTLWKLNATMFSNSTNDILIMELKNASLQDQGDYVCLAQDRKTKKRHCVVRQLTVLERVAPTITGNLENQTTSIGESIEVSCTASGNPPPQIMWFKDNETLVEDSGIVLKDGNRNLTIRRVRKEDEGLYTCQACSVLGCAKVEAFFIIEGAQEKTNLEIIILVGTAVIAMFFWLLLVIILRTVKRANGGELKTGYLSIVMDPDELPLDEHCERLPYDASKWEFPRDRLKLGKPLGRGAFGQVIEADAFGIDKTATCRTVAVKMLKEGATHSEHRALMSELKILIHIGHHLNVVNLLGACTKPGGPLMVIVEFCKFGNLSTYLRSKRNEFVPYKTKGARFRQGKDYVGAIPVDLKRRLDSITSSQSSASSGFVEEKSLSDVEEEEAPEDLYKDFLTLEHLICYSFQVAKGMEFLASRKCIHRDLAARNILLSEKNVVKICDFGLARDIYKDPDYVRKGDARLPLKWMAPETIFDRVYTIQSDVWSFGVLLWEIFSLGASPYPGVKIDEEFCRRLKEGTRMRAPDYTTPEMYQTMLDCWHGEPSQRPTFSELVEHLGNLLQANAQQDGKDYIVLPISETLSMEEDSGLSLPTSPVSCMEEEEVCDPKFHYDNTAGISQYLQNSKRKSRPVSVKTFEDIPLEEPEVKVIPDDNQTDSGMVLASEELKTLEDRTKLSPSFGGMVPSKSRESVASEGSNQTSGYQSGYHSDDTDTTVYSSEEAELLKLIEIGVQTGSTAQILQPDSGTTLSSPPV
For data set [2], the system named is MCF-7 breast cancer cell line. Put plainly: MTT anti-proliferative assay, MCF-7. Format: cell-based. The settings on record: Homo sapiens, MCF7, 48 h, mean ± S.E.M. The procedure: as §1, §2
Background: Tetrazolium dyes change colour on reduction, which living cells bring about.

Data set [3] deals with MCF-7 cells. Put plainly: Cell cycle analysis by flow cytometry (propidium iodide). Format: cell-based. Conditions: MCF-7, 5.73 µM, 24 h. The procedure: Based on the anti-proliferative activity results, we selected compound 4 to further explore and achieve insights into the mechanism responsible for the cytotoxicity of this class of compounds. Toward this aim, we assessed the effect of compound 4 on the cell cycle distribution of MCF-7 cells utilizing flow cytometry analysis. The cell cycle distribution analysis was evaluated after incubation of MCF-7 cells with compound 4 at 5.73 µM. […] Further, compound 4 induced a substantial diminution in the cellular population at the G2/M stage. As indicated in Figure 5a–c, the cellular populations of the G2/M and pre-G1 phases in the control cells were 16.99% and 2.12%, respectively, while the populations were altered to 6.81% and 31.66%, respectively, in the presence of compound 4 at 5.73 µM.
To assess the effect of compound 4 on the cell cycle of MCF-7 cells, we treated the MCF-7 cells with compound 4 and analyzed the cell cycle arrest at different stages as previously reported. […] After the cells were incubated with propidium iodide (5 mg/mL, Sigma, Ronkonkoma, NY, USA) and Rnase (10 mg/mL, Sigma, Ronkonkoma, NY, USA), cytofluorometry analysis was performed using FACS Calibur cytometer, and the results were analyzed utilizing Cell quest software (BD Bioscience, San Jose, CA, USA).

The subject of data set [4] is epithelial breast cell line MCF-10A. Put plainly: MTT cytotoxicity assay, epithelial breast cells MCF-10A. In kind it is cell-based. The settings on record: Homo sapiens, 48 h, mean ± S.E.M. The procedure:
as §1, §2

Data set [5] concerns MCF-7 cells. Description: Annexin V-FITC/PI dual staining (apoptosis and necrosis). Format: cell-based. Conditions: MCF-7, 5.73 µM, 24 h. The method, then: Our findings encouraged us to further explore the mechanistic insights accounting for the potent cytotoxicity and cell cycle arrest. To investigate whether the mode of action for the antiproliferative activity of compound 4 toward MCF-7 cells involves apoptosis and/or necrosis, we performed Annexin V- FITC/PI dual staining assay. To this end, we treated MCF-7 cells with compound 4 (5.73 µM) for 24h and assessed the programmed cell death at different stages utilizing the cytofluorometry analysis. […] Indeed, treatment with compound 4 increased apoptosis by 9 and 89 times at the early and late stages, respectively, compared to control cells.
To explore the effect of compound 4 on the programmed cell death mechanisms of MCF-7 cells, fluorescent Annexin V-FITC/ PI assay was performed using flow cytometry following a previously reported procedure. Briefly, MCF-7 cells (2 × 10^5) were treated with compound 4 at 5.73 µM concentration. After incubation for 24 h, the harvested cells were stained in the dark at 37 °C with Annexin V-FITC/ PI dye for 15 min. Cytofluorometry analysis was assessed by BD FACS Calibur (Becton and Dickinson, Heidelberg, Germany), and the BD cell Quest pro software was utilized to analyze the results.

Each structure is given as a SMILES string. Some results are limits rather than exact numbers.

Procedure for human VEGFR-2/KDR: In our experiments, we used Sorafenib as a positive control drug reference. The activity of compounds was assessed at different concentrations, and the IC50 values were determined.

As for `C/C(=N\Nc1nc(-c2ccc(Br)cc2)cs1)c1ccccc1O` [Compound 3c, (E)-2-(1-(2-(4-(4-Bromophenyl)thiazol-2-yl)hydrazineylidene)ethyl)-phenol], the IC50 in data set [1] (48 h) is 17.08 ± 0.13 µM; in data set [1] (Homo sapiens, MDA-MB-231, 48 h), 17.1 µM; against human VEGFR-2/KDR, 0.253 ± 0.54 µM; in data set [2] it was 13.7 ± 1.04 µM.
For the compound `Oc1ccc(/C=N/Nc2nc(-c3ccc(Cl)cc3)cs2)cc1` [Compound 3a, (E)-4-((2-(4-(4-Chlorophenyl)thiazol-2-yl)hydrazineylidene)methyl)-phenol], the IC50 in data set [1] (Homo sapiens, MDA-MB-231, 48 h) stood at 18.7 ± 1.42 µM; in data set [2] it was 24.9 ± 1.9 µM.
Compound `COc1cc(C(OC(C)=O)N(/N=C(\C)c2ccc(Br)cc2)c2nc(-c3ccc(Cl)cc3)cs2)ccc1OC(C)=O` (stereo not drawn) [Compound 6b, (E)-4-(Acetoxy(2-(1-(4-bromophenyl)ethylidene)-1-(4-(4-chlorophenyl)thiazol-2-yl)hydrazineyl)methyl)-2-methoxyphenyl acetate] came in with a melting point of 126 to 128 °C. For the same compound, the IC50 in data set [1] (Homo sapiens, MDA-MB-231, 48 h) amounted to 77 ± 1.95 µM. Moreover, the half-maximal inhibitory concentration (IC50) in data set [2] was 43.8 ± 2.04 µM.
On to `CC(=O)Nc1nc(-c2ccc(Cl)cc2)cs1` [Compound 4, N-(4-(4-Chlorophenyl)-Thiazol-2-yl)Acetamide], for which the “cellular population in pre-G1 phase” value with MCF-7 cells [3] (control 2.12%) is listed as 31.66%. Also, the “cellular population in G2/M phase” value with MCF-7 cells [3] (control 16.99%) came out at 6.81%. Further, the IC50 in data set [1] (Homo sapiens, MDA-MB-231, 48 h) was 12.2 ± 0.93 µM. Further, the IC50 in data set [2] came to 5.73 ± 0.44 µM. In addition, the IC50 in data set [4] came out at 36.8 ± 5 µM. Also, in the data set on MCF-7 cells [5], the “increase of apoptosis at the early stage compared to control cells” value is listed as 9 times, the “increase of apoptosis at the late stage compared to control cells” value worked out at 89 times and the “increase of necrosis compared to control cells” value is 9 times. In addition, the necrosis percentage in the data set with MCF-7 cells [5] (control 1.26%) amounted to 11.77%.
The compound `C/C(=N\N(c1nc(-c2ccc(Cl)cc2)cs1)C(O)c1ccc(O)cc1)c1ccc(Br)cc1` (stereo not drawn) [Compound 5a, (E)-4-((2-(1-(4-Bromophenyl)ethylidene)-1-(4-(4-chlorophenyl)thiazol-2-yl)hydrazineyl)(hydroxy)methyl)phenol] came in with a melting point of 155 to 157 °C. Also, the IC50 in data set [1] (Homo sapiens, MDA-MB-231, 48 h) stood at 20.7 ± 1.58 µM. In data set [2], this compound registered an IC50 of 18.6 ± 1.42 µM.
The matching figures for `C/C(=N\Nc1nc(-c2ccc(Cl)cc2)cs1)c1ccc(Br)cc1` [Compound 3b, (E)-2-(2-(1-(4-bromophenyl)ethylidene)hydrazineyl)-4-(4-chlorophenyl)thiazole]: 185 °C, 36.8 ± 2.81 µM and 31.2 ± 2.38 µM.
`CC(=O)Oc1ccc(C(OC(C)=O)N(/N=C(\C)c2ccc(Br)cc2)c2nc(-c3ccc(Cl)cc3)cs2)cc1` (stereo not drawn) [Compound 6a, (E)-4-(Acetoxy(2-(1-(4-bromophenyl)ethylidene)-1-(4-(4-chlorophenyl)thiazol-2-yl)hydrazineyl)methyl)phenyl acetate] displayed a melting point of 126 to 128 °C. Besides, the half-maximal inhibitory concentration (IC50) in data set [1] (Homo sapiens, MDA-MB-231, 48 h) was over 100 µM. The IC50 in data set [2] is over 100 µM.
As for `COc1cc(C(O)N(/N=C(\C)c2ccc(Br)cc2)c2nc(-c3ccc(Cl)cc3)cs2)ccc1O` (stereo not drawn) [Compound 5b, (E)-4-((2-(1-(4-Bromophenyl)ethylidene)-1-(4-(4-chlorophenyl)thiazol-2-yl)hydrazineyl)(hydroxy)methyl)-2-methoxyphenol], the melting point fell in the range of 158 to 160 °C. The same compound displayed an IC50 in data set [1] (Homo sapiens, MDA-MB-231, 48 h) of 62.12 ± 0.47 µM. Further, in data set [2], the IC50 is 32.5 ± 2.47 µM.

A word on the IC50: it is the concentration that gives 50% inhibition. Read a low IC50 as greater potency in that assay. The melting point is the temperature of the solid-liquid transition.
